{
  "source": "patent US11878022B2",
  "about": "(Novitium Pharma LLC, priority 2020, dated 2024)",
  "origin": "cited, not measured here",
  "key": {"[1]": {"settings": "in vivo"}, "[2]": {"settings": "in vivo", "remark": "listed apart in the source"}},
  "data": [
    {"smiles": "NS(=O)(=O)c1cc2c(cc1Cl)NCNS2(=O)=O", "note": "[Hydrochlorothiazide, 6-Chloro-3,4-dihydro-2H-1,2,4-benzothiadiazine-7-sulfonamide-1,1-dioxide]", "values": [
      {"measurement": "Binding to serum proteins", "setting": "[1]", "value": "40-68%"},
      {"measurement": "absorbed dose excreted in urine as unchanged drug", "setting": "[1]; po", "value": "greater than 95%"},
      {"measurement": "Onset of action after dosing", "setting": "[2]", "value": "≤ 2", "unit": "h"},
      {"measurement": "persistence of activity", "setting": "[2]", "value": "up to 24 hours"},
      {"measurement": "time of peak effect", "setting": "[2]", "value": "about 4 hours"}
    ]}
  ]
}
